Active and inactive are the calls of the source. The rule behind the calls is not given here. Square brackets hold non-standard residues; d marks the D form. Peptide text beside a SMILES is read from it. * marks the point of attachment. Sta = CC(C)C[C@H](N)[C@@H](O)CC(=O)O; NHPhenethyl = c1ccc(CCN*)cc1; NMeV = CN[C@H](C(=O)O)C(C)C; Cbz = O=C(OCc1ccccc1)*
How the values were obtained:
HepG2 = test: Cytotoxicity against human HepG2 cells after 48 hrs by CellTiter Glo assay; assay type: cell-based; details: HepG2, 48 h
[1] = target: Plasmepsin V (Plasmodium falciparum (isolate 3D7)) (UniProt Q8I6Z5); test: Inhibition of plasmepsin 5 in trophozoite stage of transgenic Plasmodium falciparum infected in erythrocytes assessed as suppression of PEXEL processing of GFP-fused EMP3 at 20 uM after 5 hrs by Western blot analysis; assay type: cell-based
Chain of Plasmepsin V (Plasmodium falciparum (isolate 3D7)) (Q8I6Z5 whole entry, looked up, the tested form may be a part): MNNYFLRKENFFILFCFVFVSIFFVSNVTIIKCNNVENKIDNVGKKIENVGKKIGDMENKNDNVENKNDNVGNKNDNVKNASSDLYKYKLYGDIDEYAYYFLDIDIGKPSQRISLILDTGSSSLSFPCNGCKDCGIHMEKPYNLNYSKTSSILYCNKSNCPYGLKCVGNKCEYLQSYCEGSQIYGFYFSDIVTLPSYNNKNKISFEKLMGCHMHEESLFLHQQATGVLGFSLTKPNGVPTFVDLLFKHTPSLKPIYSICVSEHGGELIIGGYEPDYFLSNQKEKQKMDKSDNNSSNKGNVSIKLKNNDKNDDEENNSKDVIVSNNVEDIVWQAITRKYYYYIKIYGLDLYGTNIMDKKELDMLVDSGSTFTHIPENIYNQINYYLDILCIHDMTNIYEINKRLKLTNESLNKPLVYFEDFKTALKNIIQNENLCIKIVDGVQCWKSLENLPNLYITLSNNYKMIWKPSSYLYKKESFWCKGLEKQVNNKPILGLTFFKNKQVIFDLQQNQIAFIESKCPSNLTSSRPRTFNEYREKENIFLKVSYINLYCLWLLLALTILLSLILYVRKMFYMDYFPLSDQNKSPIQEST

Plasmepsin V = Plasmepsin V (Plasmodium falciparum (isolate 3D7), UniProt Q8I6Z5); test: Inhibition of HA-tagged transgenic Plasmodium falciparum plasmepsin 5 using DABCYL-RNKRTLAQKQ-E-EDANS as substrate after 120 mins by fluorescence plate reader analysis
Chain of Plasmepsin V (Q8I6Z5 whole entry): as the sequence (Q8I6Z5 whole entry, looked up, the tested form may be a part) above

[2] = Stability in phosphate buffer at 5000 ng/ml at 37 degC at pH 7.4 measured over 24 hrs by LC-MS analysis in presence of porcine pancreatin; assay type: physicochemical; details: pig, pH 7.4, 24 h
Plasmodium falciparum = test: Antiparasitic activity against early ring-stage of Plasmodium falciparum 3D7 infected in human erythrocytes assessed as inhibition of parasite viability after 72 hrs by flow cytometric analysis; assay type: functional, organism-based; details: 3D7, 72 h
Serum = test: Metabolic stability in human serum at 5000 ng/ml at 37 degC measured over 55 hrs by LC-MS analysis; assay type: ADME

## COc1cc([C@@H]2c3cc4c(cc3[C@@H](O[C@@H]3O[C@@H]5CO[C@@H](C)O[C@H]5[C@H](O)[C@H]3O)[C@H]3COC(=O)[C@H]23)OCO4)cc(OC)c1O [ETOPOSIDE]
HepG2
  EC50: 9.8 µM

## CC(C)C[C@@H]([C@@H](O)CC(=O)NCCc1ccc(Cl)cc1)N(C)C(=O)[C@H](C)NC(=O)[C@H](CCCNC(=N)N)NC(=O)OCc1ccccc1
[1]
  inhibition: inactive
HepG2
  EC50: > 50 µM
Plasmepsin V
  IC50: 0.89 µM
[2]
  Stability: Unstable
Plasmodium falciparum
  EC50: 29.2 µM
Serum
  Stability: Stable

## CC(C)C[C@H](NC(=O)[C@H](C)NC(=O)[C@H](CCCNC(=N)N)N(C)C(=O)OCc1ccccc1)[C@@H](O)CC(=O)NCCc1ccc(Cl)cc1
[1]
  inhibition: inactive
HepG2
  EC50: > 50 µM
Plasmepsin V
  IC50: 15.6 µM
[2]
  Stability: Stable
Plasmodium falciparum
  EC50: 67.8 µM
Serum
  Stability: Stable

## CCN(CC)CCCC(C)Nc1ccnc2cc(Cl)ccc12 (centres undefined) [CHLOROQUINE]
Plasmodium falciparum
  EC50: 0.01 µM

## CC(C)C[C@H](NC(=O)[C@H](C)NC(=O)[C@H](CCCNC(=N)N)NC(=O)OCc1ccccc1)[C@@H](O)CC(=O)NCCc1ccc(Cl)cc1
[1]
  inhibition: Active
HepG2
  EC50: > 50 µM
Plasmepsin V
  IC50: 0.3 µM
[2]
  Stability: Stable
Plasmodium falciparum
  EC50: 15.3 µM
Serum
  Stability: Stable

## CC(C)C[C@H](NC(=O)[C@@H](NC(=O)[C@H](CCCNC(=N)N)NC(=O)OCc1ccccc1)C(C)C)[C@@H](O)CC(=O)NCCc1ccccc1 (Cbz-Arg-Val-[Sta]-NHPhenethyl)
[1]
  inhibition: Active
HepG2
  EC50: > 50 µM
Plasmepsin V
  IC50: 0.026 µM
Plasmodium falciparum
  EC50: 3.97 µM

## CC(C)C[C@H](NC(=O)[C@H](C(C)C)N(C)C(=O)[C@H](CCCNC(=N)N)NC(=O)OCc1ccccc1)[C@@H](O)CC(=O)NCCc1ccccc1 (Cbz-Arg-[NMeV]-[Sta]-NHPhenethyl)
[1]
  inhibition: inactive
Plasmepsin V
  IC50: > 50 µM
Plasmodium falciparum
  EC50: 5.89 µM

## CC(C)C[C@H](NC(=O)[C@H](C)N(C)C(=O)[C@H](CCCNC(=N)N)NC(=O)OCc1ccccc1)[C@@H](O)CC(=O)NCCc1ccc(Cl)cc1
[1]
  inhibition: inactive
HepG2
  EC50: > 50 µM
Plasmepsin V
  IC50: 48 µM
[2]
  Stability: Stable
Plasmodium falciparum
  EC50: 23.2 µM
Serum
  Stability: Stable

## CC(C)C[C@H](NC(=O)[C@H](C)NC(=O)[C@H](CCCNC(=N)N)NC(=O)OCc1ccccc1)[C@@H](O)CC(=O)N(C)CCc1ccc(Cl)cc1
[1]
  inhibition: inactive
HepG2
  EC50: > 50 µM
Plasmepsin V
  IC50: 5.35 µM
[2]
  Stability: Stable
Plasmodium falciparum
  EC50: 20.3 µM
Serum
  Stability: Stable

Source: ChEMBL document CHEMBL3734735, “The effect of N-methylation on transition state mimetic inhibitors of the Plasmodium protease, plasmepsin V” (Medchemcomm, 2015)
